Data from publication PMC7011955, “Synthesis and biological evaluation of certain hydrazonoindolin-2-one derivatives as new potent anti-proliferative agents” (Journal of Enzyme Inhibition and Medicinal Chemistry, 2018).
“Also recorded” adds a separate entry of the source. Read-outs that look alike come from different tables or passages of the source.

Assays:
[1] = system: lung cancer A-549 cell line; assay: CellTiter-Glo Luminescent cell viability assay, anti-proliferative activity, A-549; type: cell-based, human; conditions: Homo sapiens; for inhibition at 30 µM: A549, 30 µM single concentration, read-out: Growth inhibition % A-549
Description: (§1) The anti-proliferative activity of the title compounds 3a-e, 5a-e, 7a-c, and 10a-l towards cancer cell lines, normal cell lines, and multidrug-resistant lung cancer NCI-H69AR cell line was determined using CellTiter-Glo™ Luminescent cell viability assay according to the previously published procedures[14]^,[15].
(§2) The cancer cell growth inhibitory activity of the synthesised 25 compounds 3a-e, 5a-e, 7a-c, and 10a-l was evaluated in vitro towards three human cancer cell lines, namely lung cancer A-549, human colon cancer HT-29, and breast cancer ZR-75 cell lines using CellTiter-Glo™ Luminescent cell viability assay. Sunitinib was included in this assay as a reference drug.
(§3) The prepared hydrazonoindolin-2-ones were first evaluated at preliminary anti-proliferative assay against the three cancer cell lines in quadruplicate at a single concentration of 30 µM. The data presented as percentage growth inhibition (GI%) caused by the test compounds (Table 1).

[2] = system: breast cancer ZR-75 cell line; assay: CellTiter-Glo Luminescent cell viability assay, anti-proliferative activity, ZR-75; type: cell-based; conditions: Homo sapiens, ZR75; 30 µM single concentration, quadruplicate; read-out: Growth inhibition % ZR-75
Description: as §1, §2, §3

[3] = system: colon cancer HT-29 cell line; assay: CellTiter-Glo Luminescent cell viability assay, anti-proliferative activity, HT-29; type: cell-based, human; conditions: Homo sapiens, HT-29; 30 µM single concentration, quadruplicate; read-out: Growth inhibition % HT-29
Description: as §1, §2, §3

[4] = system: A-549, ZR-75 and HT-29 cell lines; assay: Average anti-proliferative activity over the three cancer cell lines; type: cell-based, human; conditions: average over A-549, ZR-75, HT-29; for Average growth inhibition % / inhibition at 30 µM: 30 µM; for inhibition at 30 µM / IC50: Homo sapiens; for inhibition at 30 µM: read-out: Average growth inhibition %
Description: as §1, §2, §3

[5] = system: A-549 cells; assay: Reduction in total cell number, DAPI labeling and imaging cytometry; type: cell-based; conditions: Homo sapiens, A549
Description: (§4) Cell cycle effects of the synthesised compounds 7b and 10e were determined adopting the reported procedures[14]^,[15].
(§5) In this study, cancer cells derived from lung adenocarcinoma (A-549) were used to evaluate the effects of compounds 7b and 10e on various aspects of the cell cycle progression. Both immunofluorescent imaging of phosphorylated Rb protein and total DNA content of each cell were explored to determine the activity of compounds 7b and 10e over a range of concentrations less than 100 nM to 50 µM (Figures 3–5).
Figure 3. Effects on number and cell cycle distribution. A-549 cells were treated with dose curve. Compound 7b (left) or 10e (right). […]

[6] = system: phosphorylated retinoblastoma (Rb) protein in A-549 cells; assay: Immunofluorescent imaging of phosphorylated Rb protein; type: cell-based, human; conditions: for levels of phosphorylated Rb protein: A-549, less than 100 nM to 50 µM; for IC50: Homo sapiens, A549
Description: as §4, §5

[7] = system: A-549 cells; assay: Cell cycle distribution by DNA content; type: cell-based, human
Description: as §4, §5
Figure 3. Effects on number and cell cycle distribution. A-549 cells were treated with dose curve. Compound 7b (left) or 10e (right). Cell number per cell cycle was determined by DNA content by DAPI fluorescent labeling and imaging cytometry following 48 h treatment.

[8] = system: Intestine IEC-6 cells; assay: Cell growth inhibition, non-tumorigenic IEC-6; type: cell-based; conditions: Rattus norvegicus, maximum 25 µM, quadruplicate
Description: as §1
(§6) The cell growth inhibitory activity of compounds 7b and 10e was examined towards three non-tumorigenic cell lines to estimate their selectivity for tumor cells. A-549 human non-small cell lung cancer (NSCLC) cell line was included in the assay for comparison. […] IEC-6 cells derived from rat intestine show morphologic and karyotypic features of normal intestinal epithelial cells. Fibroblasts derived from embryonic tissue from mice (Swiss-3t3) are both non-tumorigenic and contact inhibited. Compounds 7b and 10e were tested quadruplicate at maximum concentrations of 25 µM, with subsequent 10 serially diluted concentrations.

[9] = system: Breast MCF-10A cells; assay: Cell growth inhibition, non-tumorigenic MCF-10A; type: cell-based; conditions: Homo sapiens, maximum 25 µM, quadruplicate
Description: as §1, §6

[10] = system: Fibroblast Swiss-3t3 cells; assay: Cell growth inhibition, non-tumorigenic Swiss-3t3; type: cell-based, mice; conditions: Mus musculus, maximum 25 µM, quadruplicate
Description: as §1, §6

[11] = system: NCI-H69AR cell line (expresses ABCC1 efflux pump); assay: Growth inhibition of multidrug resistant lung cancer cell line; type: cell-based
Description: as §1
The anti-proliferative activity of compounds 7b and 10e was evaluated towards multidrug resistant lung cancer cell line (NCI-H69AR), which expresses the ABCC1 efflux pump protein. […] Furthermore, the H69AR cells manifested a lesser degree of resistance to the reference drug, Sunitinib (1.9-fold less sensitive).

[12] = system: IEC-6, MCF-10A, Swiss-3t3 vs A-549 cell lines; assay: Mean tumor selectivity index, non-tumorigenic lines vs A-549; type: cell-based; conditions: non-tumorigenic IEC-6, MCF-10A
Excerpt: as §6

[13] = system: breast cancer ZR-75 cell line; assay: CellTiter-Glo Luminescent cell viability assay, anti-proliferative activity, ZR-75; type: cell-based, human; conditions: Homo sapiens, ZR75, mean ± SD of four separate experiments
[14] = system: colon cancer HT-29 cell line; assay: CellTiter-Glo Luminescent cell viability assay, anti-proliferative activity, HT-29; type: cell-based; conditions: Homo sapiens, mean ± SD of four separate experiments
[15] = A549, mean ± SD of four separate experiments, read-out: IC50 A-549
[16] = A549, selectivity assay, maximum 25 µM, quadruplicate, read-out: IC50 NSCLC A-549
[17] = A549, sensitive line in comparison with resistant NCI-H69AR, read-out: IC50 Sensitive A-549
[18] = A-549, 24 h treatment, read-out: IC50 for reductions in the total cell number, 24 h
[19] = A-549, 48 h treatment, read-out: IC50 for reductions in the total cell number, 48 h
[20] = A-549, 24 h treatment, read-out: IC50 for reduction in Rb phosphorylation, 24 h
[21] = A-549, 48 h treatment, read-out: IC50 for reduction in Rb phosphorylation, 48 h

Row | SMILES | IC50 [1, 15] [µM] | IC50 [1, 16] [µM] | IC50 [1, 17] [µM] | inhibition at 30 µM ([1]; quadruplicate) [%] | inhibition at 30 µM [2] [%] | inhibition at 30 µM [3] [%] | Average growth inhibition % [4] [%] | inhibition at 30 µM [4] [%] | IC50 [4] [µM] | IC50 [5, 18] [µM] | IC50 [5, 19] [µM] | levels of phosphorylated Rb protein [6] | IC50 [6, 20] [µM] | IC50 [6, 21] [µM] | Cell cycle effects [7] | IC50 [11] [µM] | Mean tumor selectivity [12] | melting point [°C] | IC50 [13] [µM] | IC50 [14] [µM] | further results
1 | O=C1Nc2ccc(Cl)cc2C1=NN=Cc1ccn[nH]1 [Compound 7b, 3-(((1H-pyrazol-5-yl)methylene)hydrazono)-5-chloroindolin-2-one] | 2.29 ± 0.21 | 3.84 ± 0.67 | 3.8 ± 0.67 | 91.5 ± 1.3 | 82.3 ± 15.2 | 94.9 ± 1.8 | 89.6 | > 80 | 2.14 | 12.7 ± 13.6 | 8.08 ± 0.95 | significantly reduced in a dose-dependent manner | 12.1 ± 0.6 | 13.6 ± 0.6 | decrease in the percentage of cells in the G1 phase of the cell cycle with corresponding increase in the G2/M-phases; also recorded: G1 decreased and G2/M-phases increased | 16 | 1.6 | > 300 | 1.37 ± 0.23 | 2.75 ± 0.31 | IC50 [8]: 8.7 ± 4.32 µM; IC50 [9]: 3.42 ± 0.45 µM; IC50 [10]: 6.85 ± 0.76 µM
2 | O=C1Nc2ccc(Cl)cc2C1=NNc1nc(-c2ccccc2)cs1 [Compound 10e, 5-Chloro-3–(2-(4-phenylthiazol-2-yl)hydrazono)indolin-2-one] | 4.79 ± 0.45 | 4.13 ± 0.61 | 4.1 ± 0.61 | 80.4 ± 6 | 89.3 ± 7.2 | 85.7 ± 10.2 | 85.1 | > 80 | 4.66 | 7.38 ± 1.04 | 7.27 ± 1.15 | significantly reduced in a dose-dependent manner | 7.59 ± 0.38 | 12.5 ± 2.1 | increase in the percentage of cells in the G1 phase of the cell cycle with corresponding decreases in S- and G2/M phases; also recorded: G1 increased and G2/M-phases decreased | 16 | 1.8 | 292 to 294 | 1.95 ± 1.03 | 7.25 ± 0.83 | IC50 [8]: 8.98 ± 1.25 µM; IC50 [9]: 5.37 ± 0.61 µM; IC50 [10]: 8.51 ± 1.01 µM
3 | O=C1Nc2ccc(Br)cc2C1=NNc1nc(-c2ccccc2)cs1 [Compound 10i, 5-Bromo-3–(2-(4-phenylthiazol-2-yl)hydrazono)indolin-2-one] | 6.13 ± 0.76 | – | – | 92.3 ± 6.2 | 97.5 ± 3.1 | 96.3 ± 5.9 | 95.4 | > 80 | 5.45 | – | – | – | – | – | – | – | – | 285 to 287 | 1.96 ± 0.85 | 8.26 ± 0.86 | –
4 | Cc1ccc(-c2csc(NN=C3C(=O)Nc4ccc(Br)cc43)n2)cc1 [Compound 10j, 5-Bromo-3–(2-(4–(4-tolyl)thiazol-2-yl)hydrazono)indolin-2-one] | 12.8 ± 1.4 | – | – | 85.9 ± 9.1 | 73.1 ± 3.5 | 90.1 ± 5.3 | 83.0 | > 80 | 13 | – | – | – | – | – | – | – | – | > 300 | 10.9 ± 2.81 | 15.2 ± 1.1 | –
5 | O=C1Nc2ccc(Br)cc2C1=NNc1nc(-c2ccc(Cl)cc2)cs1 [Compound 10k, 5-Bromo-3–(2-(4–(4-chlorophenyl)thiazol-2-yl)hydrazono)indolin-2-one] | 20.1 ± 3.81 | – | – | 72.4 ± 3.5 | 50.6 ± 11.5 | 66.8 ± 19.1 | – | 63.3 | 14.5 | – | – | – | – | – | – | – | – | > 300 | 3.61 | 19.8 ± 1.63 | –
6 | CCN(CC)CCNC(=O)c1c(C)[nH]c(/C=C2\C(=O)Nc3ccc(F)cc32)c1C [Sunitinib, reference compound] | 10.1 ± 0.8 | 3.06 ± 0.9 | 3.1 ± 0.9 | 59.5 ± 2.3 | 90.7 ± 4.5 | 85.7 ± 2.7 | – | 78.7 | – | – | – | – | 3.18 ± 0.07 | – | G1 decreased and G2/M-phases increased | 5.8 ± 0.52 | 1.4 | – | – | 5.87 ± 0.3 | –
